In patent US20250034525A1, “CONSTRUCTION METHOD, DETECTION METHOD, AND APPLICATION OF IN VITRO TISSUE MODEL OF DIABETIC CARDIOMYOPATHY” (HUBEI UNIVERSITY, priority 2023, published 2025):

How the values were obtained:
Assay type in all cases: cell-based
[1] = system: human engineered heart tissue (hEHT); assay: Contractility detection of human EHT by mechanical assay (force transducer, stretch)
Procedure: 1) After EHT was constructed and cultured for 5-7 days (the medium was changed every other day), the EHTs had good structure and beat regularly.
(§1) 2) EHT was stimulated by 500 μM PA, and for the control group, it contained the same concentration of BSA and ethanol. After 24 hours and 72 hours of stimulation, the supernatant and tissue samples were collected for functional detection.
3) A contractility detection system by mechanical assay: the mechanical characteristics of the bundle were detected by using a mechanical measurement platform, in which the bath, platinum electrode, tissue fixation device, and assembly form were self-designed, and other components such as sensors, amplifiers, digital-to-analog converters, data acquisition software, stepper motors, supporting components, temperature controllers and stimulators were all commercially available and assembled in-house after procurement.
4) Experimental steps for contractility detection by mechanical assay: the instrument was preheated for 30 minutes in advance, and the sensor was calibrated with precision weights by gravity. The Tyrode's Solution containing 1.8 mM CaCl2 was put into a 37° C. water bath for preheating in advance, and the platform was set to 37° C. The bundle was dipped into the Tyrode's Solution, and both ends were fixed with specimen needles, wherein one of which was fixed on the sensor and the other was fixed on the bath. Data were collected after the microstructure was balanced for 2 min. Start the electrical stimulator, and stimulate the bundle electrically at a voltage of 10 V and frequencies of 1, 1.5, 2, 2.5, and 3 Hz. Start the stepper motor to control software to start the programmed stretching program, and stretch the bundle from the initial state (8 mm) by 12% (0.96 mm) of the initial length, stretching 2% (0.16 mm) each time, collecting data for 40 s in each stretching state, and collecting contraction force data under different stretching states. After stretching, end the collection and save the data. The collected data were analyzed by the customized program MATLAB software.

[2] = system: human engineered heart tissue (hEHT); assay: Optical mapping detection of human EHT electrical conduction
Procedure: 1) The electrode was made of 0.2 mm platinum wire, and the conductive function was tested using a sealed membrane nickel wire interface.
2) Fluo-4/RHOD2 was dissolved in DMSO (dimethyl sulfoxide) with a volume ratio of 1:1 to prepare a stock solution, which was then added into EHT medium at a ratio of 1:1,000 (working solution), incubated at 37° C. for 20 min, followed by washing with DPBS twice, then incubated with serum-free EHT medium at 37° C.
3) Preparation of medium for imaging: 10 μM Blebbistatin was added into the Tyrode's Solution or serum-free EHT medium in a volume ratio of 1:2,000 for imaging. The medium for imaging was added into a PDMS dish, the EHT was fixed on the dish with a specimen needle, put in a 41° C. temperature control chamber, and the electrode was put on one side of the EHT; an optical mapping camera was used for formal imaging, and the preview speed of 600 ms was recorded in 10 seconds, then recording was conducted in the cases where there was no electrical stimulation and 1 Hz electrical stimulation, respectively, in which the laser intensity was MAX: 12-16%.
The collected data were analyzed by optical mapping software.

[3] = system: human pluripotent stem cell-derived cardiomyocytes; assay: CCK8 survival rate of human pluripotent stem cell-derived cardiomyocytes (planar monolayer); conditions: 250 μM PA, 24 h, versus 30 mM Glucose and 10 nM ET-1 + glucocorticoid, single or combined factors
Procedure: FIG. 2A-FIG. 2B show the results of confirming the effects of different metabolic factors on survival rate of the cardiomyocytes in the present disclosure.
3) Diluting PA with a final concentration of 250 μM, 500 μM, and 750 μM using cells or EHT medium to stimulate human-derived cardiomyocytes or EHTs. An equivalent amount of ethanol was dissolved in 10% BSA, which was diluted with medium finally as a control solution.
In the present disclosure, firstly, differentiated human cardiomyocytes were paved into planar monolayer cells, and then the cell survival rate was detected by adding 30 mM Glucose, 250 μM PA, 10 nM endothelin (ET-1) and […] glucocorticoid to the medium as single or combined factor(s), respectively, it is identified that the most obvious diabetic stimulus factor for cardiomyocyte injury was PA (FIG. 2A-FIG. 2B). Furthermore, different concentrations of PA were used to stimulate cardiomyocytes, and the concentration and time-dependent effects were evaluated (FIG. 3A). The injury effect of PA was determined through myocardial injury marker LDH (FIG. 3B).

[4] = system: human engineered heart tissue (hEHT); assay: LDH myocardial injury marker in hEHT model; conditions: 500 μM PA, 72 h stimulation
Procedure: In the present disclosure, an in vitro tissue model of diabetic cardiomyopathy obtained by the above construction method is also provided. According to the disclosure, it is identified that a diabetic cardiomyopathy tissue model is generated with myocardial contractility that ranges from unchanged (1 day) to decreased (3 days), concomitant with the appearance of a myocardial fibrosis phenotype by dynamic stimulation of hEHT with 500 μM PA.
as §1

[5] = system: human engineered heart tissue (hEHT); assay: H&E staining and immunofluorescence staining of human EHT (fibrosis)
Procedure: For the morphological and histological observation after Bundle stimulation, the tissue was first treated by conventional paraffin embedding methods, and then the tissue was stained by basic staining and immunofluorescence staining after slicing. The specific steps were as follows: • (1) Cleaning the bundle twice using DPBS without calcium and magnesium ions. • (2) Fixing the bundle with 4% PFA (Paraformaldehyde) at room temperature for 15 min. • (3) Placing the fixed bundle in a paraffin tissue embedding frame and rinsing it with running water for 2 h. • (4) The […] bundle was subjected to gradient dehydrating and wax dipping using a Dewaxer (Hisure Scientific Co., Ltd.) with a total of 12 cylinders under the following conditions: 70% ethanol for 1 h, 80% ethanol for 1 h, 80% ethanol for 0.5 h, 90% ethanol for 0.5 h, 90% ethanol for 0.5 h, 100% ethanol for 0.5 h, xylene for 0.5 h, xylene for 0.5 h, paraffin at 63° C. for 5 min, paraffin at 63° C. for 5 min and paraffin at 63° C. for 5 min. • (5) After the dehydrated Bundle was placed at the bottom of the iron frame molding tool with an appropriate size, the plastic embedding frame was placed on the iron frame molding tool, and then placed on the freezing platform. […] After adding the anti-fluorescence quencher dropwise, the coverslip was covered, and the slide was mounted with nail polish.

[6] = Empagliflozin added with 500 μM PA, 24 hours' stimulation

Structure (SMILES) | number of abnormal diastolic peaks of PA-stimulated hEHT ([1]; Empagliflozin added with 500 μM PA, under stretch conditions) | APD80 of PA-stimulated human EHT [2, 6] | contraction amplitude of PA-stimulated human EHT [2, 6] | electric signal conduction velocity of PA-stimulated human EHT [2, 6] | cardiomyocyte survival rate (CCK8) [3] | LDH [4] | abnormal relaxation (diastolic) peak ([1]; 500 μM PA, 24 h stimulation) | myocardial relaxation time (diastolic duration) ([1]; 500 μM PA, 24 h stimulation) | positive contractility (contraction force) ([1]; 500 μM PA, 24 h stimulation) | abnormal peaks (diastolic) ([1]; 500 μM PA, 72 h stimulation) | inotropic force (contraction force) ([1]; 500 μM PA, 72 h stimulation) | relaxation time (diastolic duration) ([1]; 500 μM PA, 72 h stimulation) | APD50 ([2]; 500 μM PA, 6 h stimulation) | APD80 ([2]; 500 μM PA, 6 h stimulation) | contraction amplitude ([2]; 500 μM PA, 6 h stimulation) | electric signal conduction velocity ([2]; 500 μM PA, 6 h stimulation) | pathological changes and level of fibrosis inside human EHT ([5]; 24 hours after PA stimulation) | fibrosis inside the heart tissue ([5]; 72 hours after PA stimulation)
OC[C@H]1O[C@@H](c2ccc(Cl)c(Cc3ccc(O[C@H]4CCOC4)cc3)c2)[C@H](O)[C@@H](O)[C@@H]1O [Empagliflozin] | reduced number | improved | effectively recover | effectively recover |  |  |  |  |  |  |  |  |  |  |  |  |  | 
CCCCCCCCCCCCCCCC(=O)O [PA, palmitic acid] |  |  |  |  | lowest | increased significantly | abnormal relaxation peak | prolonged | did not affect | more frequent | significant decrease | more frequent prolongation | obviously increased | obviously increased | not decreased | not decreased | no obvious pathological changes and changes in the level of fibrosis | obvious fibrosis
